IC50 data for 24 compounds are collected here from patent publication US20110053933A1, “HYDROXYQUINOXALINECARBOXAMIDE DERIVATIVE” (DAIICHI SANKYO COMPANY, LIMITED, priority 2008, published 2011).

Molecules are shown by their SMILES.

This test deals with γ-glutamyl carboxylation reaction (human Gas6 in Gas6-HEK293 cells). The experiment in a line: Inhibitory action on γ-glutamyl carboxylation reaction (secreted γ-glutamyl carboxylated Gas6 by ELISA). As to conditions: vitamin K2 100 nM, exposure 18 to 20 hours, ELISA absorbance at 620 nm, read-out: IC50 (50% inhibitory concentration for the γ-glutamyl carboxylation reaction). It counts as cell-based. On the procedure:
Measurement of Inhibitory Action on γ-Glutamyl Carboxylation Reaction
Cells were used that expressed Gas6 excreted outside the cells when subjected to γ-glutamyl carboxylation, and inhibitory action on γ-glutamyl carboxylation reaction was assessed by measuring the secreted amount of extracellular Gas6 by ELISA method.
(A) Preparation for Assay Plate Containing Solid-Phase Anti-Human Gas6 Antibody
Goat anti-human Gas6 antibody (R&D Systems, Inc.) was diluted to 1 μg/ml with Dulbecco's phosphate-buffered saline, and 40 μl aliquots thereof were dispensed into each well of a 384-well microplate. After immobilizing the antibody to the solid phase by allowing it to stand at 4° C. overnight or at room temperature for 2 hours or more, each well was washed three times with wash buffer (10 mM Tris-HCl pH 7.4, 150 mM sodium chloride, 0.05% Tween20). After removing the supernatant, 80 μl aliquots of a 1% aqueous solution of Block Ace (Dainippon Sumitomo Pharma) were dispensed into each well and allowed to react at room temperature for 1 hour or more.
(B) Exposure of Test Compounds to Cells Stably Expressing Human Gas6
Cells that stably express human Gas6 (Gas6-HEK293), which were prepared by inserting human Gas6 gene (inserted between SalI and NotI within multiple cloning sites of pCIneo expression vector) into HEK293 cells, were grown and sub-cultured using Dulbecco's modified Eagle's medium (DMEM) containing 10% fetal calf serum (FCS). On the day before ELISA measurement, the Gas6-HEK293 cells were detached with trypsin-EDTA, dispersed in DMEM containing 10% FCS, and disseminated into each well of a 384-well, collagen type I-coated plate (Becton-Dickinson) in 30 μl aliquots containing 1.0×10^4 cells each, followed by culturing for 3 to 4 hours at 5% CO2 and 37° C. 30 μl aliquots of DMEM containing test compound solutions, prepared at various concentrations by dissolving in DMSO, and vitamin K2 at 0.1% and 100 nM, respectively (indicating final concentrations in both cases) were added to each well followed by additionally culturing for 18 to 20 hours.
(C) Quantification of γ-Glutamyl Carboxylated Gas6 by ELISA and Calculation of 50% Inhibitory Concentrations of γ-Glutamyl Carboxylation Reaction
After removing the 1% Block Ace aqueous solution from the preliminarily prepared assay plates containing solid phase anti-human Gas6 antibody, the culture supernatant of Gas6-HEK293 cells exposed to the test compounds was collected and 40 μl aliquots were dispensed into each well followed by allowing to react at room temperature for 2 hours (Step 1). The culture supernatant was removed and each well was washed three times with wash buffer. Thereafter, the same washing procedure was carried out between Steps 2 and 3 and Steps 3 and 4. Subsequently, 40 μl aliquots of mouse anti-human […] antibody (American Diagnostica inc.), adjusted to 0.5 μg/ml with immunoreaction buffer (100 mM Tris-HCl pH 7.4, 0.05% Tween20, 0.1% Block Ace), were dispensed into each well and allowed to react at room temperature for 1 hour (Step 2). Next, 40 μl aliquots of alkaline phosphatase-conjugated anti-mouse IgG antibody adjusted to 1.0 μg/ml with immunoreaction buffer were dispensed into each well and allowed to react at room temperature for 1 hour (Step 3). 40 μl aliquots of BluePhos Microwell (KPL) were dispensed into each well, and after incubating at room temperature for 10 minutes (Step 4), 20 μl aliquots of 5% EDTA were added to each well to stop the color development reaction, followed by measurement of absorbance at 620 nm (Step 5). […]
Turning to `C[C@H](NC(=O)c1nc2ccccc2nc1O)C(=O)N1CCC(Oc2ccc(Cl)cc2)CC1` [Example 1, N-{(1S)-2-[4-(4-Chlorophenoxy)piperidin-1-yl]-1-methyl-2-oxoethyl}-3-hydroxyquinoxaline-2-carboxamide], the IC50 worked out at 8.4 nM.
Then `C[C@H](NC(=O)c1nc2ccccc2nc1O)C(=O)N1CCC(Oc2ccc(F)cc2)CC1` [Example 2, N-{(1S)-2-[4-(4-Fluorophenoxy)piperidin-1-yl]-1-methyl-2-oxoethyl}-3-hydroxyquinoxaline-2-carboxamide], with 6.6 nM.
Take `C[C@H](NC(=O)c1nc2ccccc2nc1O)C(=O)N1CCC(Oc2ccc(F)cc2F)CC1` [Example 3, N-{(1S)-2-[4-(2,4-Difluorophenoxy)piperidin-1-yl]-1-methyl-2-oxoethyl}-3-hydroxyquinoxaline-2-carboxamide]: the IC50 was 3.5 nM.
The result for `C[C@H](NC(=O)c1nc2ccccc2nc1O)C(=O)N1CCC(Oc2ccc(OC(F)(F)F)cc2)CC1` [Example 4, 3-Hydroxy-N-[(1S)-1-methyl-2-oxo-2-{4-[4-(trifluoromethoxy)phenoxy]piperidin-1-yl}ethyl]quinoxaline-2-carboxamide] reads 4.7 nM; that for `C[C@H](NC(=O)c1nc2ccccc2nc1O)C(=O)N1CCC(Oc2ccc(F)cn2)CC1` [Example 6, N-[(1S)-2-{4-[(5-Fluoropyridin-2-yl)oxy]piperidin-1-yl}-1-methyl-2-oxoethyl]-3-hydroxyquinoxaline-2-carboxamide], 74 nM.
The result for `CC[C@H](NC(=O)c1nc2ccccc2nc1O)C(=O)N1CCC(Oc2ccc(F)cc2)CC1` [Example 8, N-[(1S)-1-{[4-(4-Fluorophenoxy)piperidin-1-yl]carbonyl}propyl]-3-hydroxyquinoxaline-2-carboxamide] reads 1.8 nM; that for `CC[C@H](NC(=O)c1nc2ccccc2nc1O)C(=O)N1CCC(Oc2ccc(F)cc2F)CC1` [Example 9, N-[(1S)-1-{[4-(2,4-Difluorophenoxy)piperidin-1-yl]carbonyl}propyl]-3-hydroxyquinoxaline-2-carboxamide], under 0.6 nM.
The result for `CC[C@H](NC(=O)c1nc2ccccc2nc1O)C(=O)N1CCC(Oc2ccc(OC(F)(F)F)cc2)CC1` [Example 10, 3-Hydroxy-N-[(1S)-1-({4-[4-(trifluoromethoxy)phenoxy]piperidin-1-yl}carbonyl)propyl]quinoxaline-2-carboxamide] reads under 0.6 nM; that for `CC[C@H](NC(=O)c1nc2ccccc2nc1O)C(=O)N1CCC(Oc2ccc(C#N)cc2)CC1` [Example 11, N-[(1S)-1-{[4-(4-Cyanophenoxy)piperidin-1-yl]carbonyl}propyl]-3-hydroxyquinoxaline-2-carboxamide], 6.5 nM; that for `CC[C@H](NC(=O)c1nc2ccccc2nc1O)C(=O)N1CCC(Oc2ccc(F)cn2)CC1` [Example 12, N-[(1S)-1-({4-[(5-Fluoropyridin-2-yl)oxy]piperidin-1-yl}carbonyl)propyl]-3-hydroxyquinoxaline-2-carboxamide], 4.2 nM.
On to `O=C(N[C@H](C(=O)N1CCC(Oc2ccc(F)cc2)CC1)C1CC1)c1nc2ccccc2nc1O` [Example 13, N-{(1S)-1-Cyclopropyl-2-[4-(4-fluorophenoxy)piperidin-1-yl]-2-oxoethyl}-3-hydroxyquinoxaline-2-carboxamide], for which the IC50 was 5.8 nM.
Consider `O=C(N[C@H](C(=O)N1CCC(Oc2ccc(F)cn2)CC1)C1CC1)c1nc2ccccc2nc1O` [Example 14, N-[(1S)-1-Cyclopropyl-2-{4-[(5-fluoropyridin-2-yl)oxy]piperidin-1-yl}-2-oxoethyl]-3-hydroxyquinoxaline-2-carboxamide], for which the IC50 stood at 25 nM.
Then `CC(C)[C@H](NC(=O)c1nc2ccccc2nc1O)C(=O)N1CCC(Oc2ccc(Cl)cc2)CC1` [Example 15, N-[(1S)-1-{[4-(4-Chlorophenoxy)piperidin-1-yl]carbonyl}-2-methylpropyl]-3-hydroxyquinoxaline-2-carboxamide], with 18 nM.
Then `CC(C)[C@H](NC(=O)c1nc2ccccc2nc1O)C(=O)N1CCC(Oc2ccc(F)cc2)CC1` [Example 16, N-[(1S)-1-{[4-(4-Fluorophenoxy)piperidin-1-yl]carbonyl}-2-methylpropyl]-3-hydroxyquinoxaline-2-carboxamide], with 7 nM.
Then `CC(C)[C@H](NC(=O)c1nc2ccccc2nc1O)C(=O)N1CCC(Oc2ccc(OC(F)(F)F)cc2)CC1` [Example 18, 3-Hydroxy-N-[(1S)-2-methyl-1-({4-[4-(trifluoromethoxy)phenoxy]piperidin-1-yl}carbonyl)propyl]quinoxaline-2-carboxamide], with 2.9 nM.
For `CC(C)[C@H](NC(=O)c1nc2ccccc2nc1O)C(=O)N1CCC(Oc2ccc(C#N)cc2)CC1` [Example 19, N-[(1S)-1-{[4-(4-Cyanophenoxy)piperidin-1-yl]carbonyl}-2-methylpropyl]-3-hydroxyquinoxaline-2-carboxamide], the IC50 was determined as 4.7 nM.
The result for `CC(C)[C@H](NC(=O)c1nc2ccccc2nc1O)C(=O)N1CCC(Oc2ccc(F)cc2Br)CC1` [Example 21, N-[(1S)-1-{[4-(2-Bromo-4-fluorophenoxy)piperidin-1-yl]carbonyl}-2-methylpropyl]-3-hydroxyquinoxaline-2-carboxamide] reads 0.89 nM.
Then `CC(C)[C@H](NC(=O)c1nc2ccccc2nc1O)C(=O)N1CCC(Oc2ccc(F)cc2F)CC1` [Example 23, N-[(1S)-1-{[4-(2,4-Difluorophenoxy)piperidin-1-yl]carbonyl}-2-methylpropyl]-3-hydroxyquinoxaline-2-carboxamide], with under 0.6 nM.
Take `CC(C)[C@H](NC(=O)c1nc2ccccc2nc1O)C(=O)N1CCC(Oc2ccc(Cl)cn2)CC1` [Example 29, N-[(1S)-1-({4-[(5-Chloropyridin-2-yl)oxy]piperidin-1-yl}carbonyl)-2-methylpropyl]-3-hydroxyquinoxaline-2-carboxamide]: the IC50 was found to be 7.2 nM.
On to `CC(C)[C@H](NC(=O)c1nc2ccccc2nc1O)C(=O)N1CCC(N(C)c2ccc(F)cc2)CC1` [Example 30, N-[(1S)-1-({4-[(4-Fluorophenyl)(methyl)amino]piperidin-1-yl}carbonyl)-2-methylpropyl]-3-hydroxyquinoxaline-2-carboxamide], for which the IC50 was 1.7 nM.
The result for `CC(C)[C@H](NC(=O)c1nc2ccccc2nc1O)C(=O)N1CCC(Nc2ccc(F)cn2)CC1` [Example 34, N-[(1S)-1-({4-[(5-Fluoropyridin-2-yl)amino]piperidin-1-yl}carbonyl)-2-methylpropyl]-3-hydroxyquinoxaline-2-carboxamide] reads 12 nM; that for `CC(C)[C@H](NC(=O)c1nc2ccccc2nc1O)C(=O)N1CCC(N(C)c2ccc(F)cn2)CC1` [Example 35, N-[(1S)-1-({4-[(5-Fluoropyridin-2-yl)(methyl)amino]piperidin-1-yl}carbonyl)-2-methylpropyl]-3-hydroxyquinoxaline-2-carboxamide], under 0.6 nM.
With `CC(C)[C@H](NC(=O)c1nc2ccccc2nc1O)C(=O)N1CCC(Oc2ccc(C(F)(F)F)cn2)CC1` [Example 36, 3-Hydroxy-N-{(1S)-2-methyl-1-[(4-{[5-(trifluoromethyl)pyridin-2-yl]oxy}piperidin-1-yl)carbonyl]propyl}quinoxaline-2-carboxamide], the IC50 was 1.8 nM.
In the case of `CC(C)[C@H](NC(=O)c1nc2ccccc2nc1O)C(=O)N1CCC(Oc2ccc(F)cn2)CC1` [Example 37, N-[(1S)-1-({4-[(5-Fluoropyridin-2-yl)oxy]piperidin-1-yl}carbonyl)-2-methylpropyl]-3-hydroxyquinoxaline-2-carboxamide], the IC50 came to 5.4 nM.
